Assay results: patent publication US20240024479A1, “NK CELLS OR T CELLS EXPRESSING CHIMERIC HEMATOPOIETIC GROWTH FACTOR RECEPTORS AND METHODS OF USE” (The United States of America, as represented by the …, priority 2020, published 2024)

Experiments:
Assay type in all cases: cell-based, human
c-MPL+ NK-92 cells [1] = assay: In vitro cell expansion of c-MPL+ NK-92 cells; conditions: day 8
Source text: (§1) Lentiviral production and transduction: Lentivirus gene expression vectors encoding EGFP-P2A linker-human EPOR or EGFP-P2A-human c-MPL were cloned according to our design by VectorBuilder (TX, USA). Plasmid DNA for the above and pCMV-dR8.2 dvpr and pCMV-VSV-G packaging plasmids was purified using ZymoPUREII-EndoZero plasmid maxiprep kit (Zymo Research, CA). Lentiviral particles were generated with HEK293T cells and Lipofectamine3000 reagent (Thermo Fisher Scientific, MA) following the manufacturers' instructions. Viral supernatant was harvested at 24 and 48 hours, pooled, and concentrated with lenti-X concentrator (Takara Bio, Japan) or by centrifugation at 18,600 rpm for 2 hours at 4° C. […] After 5 days post-transduction, cells were stained and sorted with fluorescence-activated cell sorting (FACS) using a BD FACSAria II to purify GFP^+EPOR^+ and GFP^+c-MPL^+ NK cell populations.
(§2) In vitro cell expansion cultures: The NK-92 (5×10^4 cell/ml) and KHYG-1 (1×10^4 cell/ml) cells were cultured in 1 ml of complete medium in 24-well plate. […] Trypan blue negative cells were counted every other day. […] Viable cells were counted and percentage of GFP^+ cells was acquired on indicated days (NK: day 4 and 6, T: day 3 and 6). The fold change of GFP^+ cells was calculated by multiplying the counted cell number times the fraction GFP^+.

parental NK-92 cell line = assay: In vitro cell expansion of parental NK-92; conditions: EPO or TPO administration
Experimental: In vitro cell expansion cultures: The NK-92 (5×10^4 cell/ml) and KHYG-1 (1×10^4 cell/ml) cells were cultured in 1 ml of complete medium in 24-well plate. […] Trypan blue negative cells were counted every other day. […] The short-term cell expansion assay was performed in similar fashion, except cells were initially cultured without IL-2 overnight before adding different cytokines and enumerating the cell number. For competitive primary NK and T cell expansion assay, all transduced cells (5×10^5/ml for NK and 4×10^5/ml for T cell) containing a mixture of GFP positive (transduced) and GFP negative (untransduced) cells were plated on day 0. Fresh medium with appropriate supplements was replaced every other day for NK cells and only on day 3 for T cell experiment. Viable cells were counted and percentage of GFP^+ cells was acquired on indicated days (NK: day 4 and 6, T: day 3 and 6). The fold change of GFP^+ cells was calculated by multiplying the counted cell number times the fraction GFP^+.

c-MPL+ KHYG-1 cells = assay: In vitro cell expansion of c-MPL+ KHYG-1 cells
Source text: as §1, §2

c-MPL+ NK-92 cells [2] = assay: Short-term expansion and apoptosis assay, c-MPL+ NK-92; conditions: TPO plus LD IL-2 vs LD IL-2 alone; day 3
Experimental: (§3) In vitro cell expansion cultures: The NK-92 (5×10^4 cell/ml) and KHYG-1 (1×10^4 cell/ml) cells were cultured in 1 ml of complete medium in 24-well plate. […] Trypan blue negative cells were counted every other day. […] For competitive primary NK and T cell expansion assay, all transduced cells (5×10^5/ml for NK and 4×10^5/ml for T cell) containing a mixture of GFP positive (transduced) and GFP negative (untransduced) cells were plated on day 0. Fresh medium with appropriate supplements was replaced every other day for NK cells and only on day 3 for T cell experiment. Viable cells were counted and percentage of GFP^+ cells was acquired on indicated days (NK: day 4 and 6, T: day 3 and 6). The fold change of GFP^+ cells was calculated by multiplying the counted cell number times the fraction GFP^+.
(§4) Staining was performed in phosphate-buffered saline (PBS) with 2% FBS and 2 mM EDTA and analyzed on a BD LSRFortessa machine. If intracellular staining was required, BD cytofix/cytoperm (BD Biosciences) was applied for cell fixation and permeabilization after surface staining. The apoptosis assay was performed using PE annexinV apoptosis detection kit (BD Biosciences). The data were analyzed on FlowJo software.

c-MPL+ NK-92 cells [3] = assay: Flow cytometry of cell signaling and anti-apoptotic proteins, c-MPL+ NK-92
Experimental: as §4
Expression of target proteins was evaluated afterward by flow cytometry as described above.

Raji tumor cells = assay: Flow cytometry based killing assay, c-MPL+ NK-92 effectors vs Raji; conditions: c-MPL+ NK-92 exposed to TPO+LD IL-2, 4 hours
Experimental: (§5) The target cells were labeled with 1 μM cell trace violet in some experiments (Thermo Fisher Scientific). The effector and target cells were incubated together in duplicate wells at specific E:T ratio in complete medium without cytokines for 4 hours (total cell number: 200,000 to 250,000 per well in 96-well plate). 7-AAD and Sphero AccuCount Fluorescent particles (Spherotech, IL) were added before analysis by flow cytometry. The absolute number of viable 7-AAD negative target cells was calculated according to bead numbers added (Cooper et al., Leukemia 32:1970-1983, 2018). The percentage of dead cells was calculated relative to target cell only control wells.

K562 = assay: Flow cytometry based killing assay, c-MPL+ NK-92 effectors vs K562; conditions: c-MPL+ NK-92 with TPO administration
Experimental: as §5

GFP+ c-MPL+ NK cells = assay: Competitive expansion of c-MPL-transduced primary NK cells; conditions: day 6
Experimental: as §3

GFP+ MPL+ NK cells = assay: Degranulation assay and cytokine production, c-MPL-transduced primary NK cells with K562
Experimental: To examine degranulation, cells were washed after two hours and stained with anti-CD107a (H4A3) (BioLegend). To assay cytokine production, GolgiPlug and GolgiStop (BD Biosciences) were added at manufacturer's recommended concentrations within the first hour of co-culture with K562. After 4 hours, cells were washed and stained for cell surface markers, then stained intracellularly with mAb recognizing TNF-α (Mab 11) and IFN-γ (B27) (BD Biosciences).

GFP+ MPL+ population = assay: Parallel in vitro cultures of the mixed transduced NK cells; conditions: only TPO

With “TPO: recombinant human thrombopoietin, ligand of the c-MPL receptor; 50 ng/ml rhTPO (R&D)” the “fold expansion of c-MPL+ NK-92 cells” value (c-MPL+ NK-92 cells [1]; TPO alone) was 7 fold, the “fold expansion of c-MPL+ NK-92 cells” value (c-MPL+ NK-92 cells [1]; TPO plus 1 U/ml IL-2) was 23.25 fold and the “expansion of the parental NK-92 cell line” value (parental NK-92 cell line) was “did not alter”. For the same substance, the “cell growth of transduced KHYG-1 cells” value (c-MPL+ KHYG-1 cells; TPO alone) was “insufficient to maintain cell growth”, the “proliferative response of receptor-transduced KHYG-1 NK cells” value (c-MPL+ KHYG-1 cells; TPO with low-dose IL-2 (1 U/ml or 5 U/ml)) was “synergized” and the “proportion of dead/apoptotic cells” value (c-MPL+ NK-92 cells [2]) was “significantly lower proportions of dead/apoptotic cells”. The pS6 expression (c-MPL+ NK-92 cells [3]; TPO added to LD IL-2) was 11.84, the “STAT5 phosphorylation, additivity” value (c-MPL+ NK-92 cells [3]; TPO combined with LD IL-2) was “No additive effects” and the pSTAT5 expression (c-MPL+ NK-92 cells [3]; TPO vs no IL-2 control, comparable to LD IL-2) was “appeared to increase pSTAT5 expression”. For the same substance, the “Bcl-2 RMFI” value (c-MPL+ NK-92 cells [3]; TPO, 24 hours, no IL-2) was 64.54, the “Bcl-xL RMFI” value (c-MPL+ NK-92 cells [3]; TPO, 24 hours, no IL-2) was 4.52 and the “phospho-p44/42 MAPK expression” value (c-MPL+ NK-92 cells [3]; cultures supplemented with IL-2 or TPO, 15 minutes) was “No alteration”. The “mean percentage of dead Raji cells” value (Raji tumor cells; E:T 1:1) was 84%, the “mean percentage of dead Raji cells” value (Raji tumor cells; E:T 10:1) was 85% and the “killing of K562 tumor targets” value (K562) was “no significant killing augmentation”. The “fold change of GFP+ c-MPL+ NK cells” value (GFP+ c-MPL+ NK cells; TPO plus 10 U/ml LD IL-2) was 24.3 fold, the “fold change of GFP+ c-MPL+ NK cells” value (GFP+ c-MPL+ NK cells; TPO+25 U/ml IL-2) was 34.1 fold and the “degranulation in GFP+ MPL+ NK cells (CD107a)” value (GFP+ MPL+ NK cells; TPO added to 25 U/ml IL-2, 4 days, K562 1:1) was 83%. The “percent of GFP MPL transduced NK cells that produced IFN-γ or TNF-α” value (GFP+ MPL+ NK cells; TPO added to 25 U/ml IL-2 vs 25 U/ml IL-2 alone, co-cultured with K562) was “considerably augmented” and the “GFP+ MPL+ population in parallel cultures” value (GFP+ MPL+ population) was 31%.
